Measured values from patent publication US9604974B2, “Compounds as modulator of JAK-STAT pathway, methods and applications thereof” (UNIVERSITY OF MYSORE, priority 2015, dated 2017).

test system: phospho-STAT3 (Y705); experiment: Western blot of constitutive phospho-STAT3 (Y705) in HepG2; format: cell-based, human; details: HepG2, 6 hours
Protocol: FIG. 2 depicts the suppression of phospho-STAT3 by compound 1 (CIMO) in a dose dependent manner [A]. HepG2 cells (5×10^5/mL) are treated with the indicated concentrations of CIMO for 6 hours, after which whole-cell extracts are prepared and resolved on SDS-PAGE gel, electrotransferred onto nitrocellulose membrane, and probed for phospho-STAT3. The same blot is stripped and reprobed with STAT3 antibody to verify equal protein loading. […] HepG2 cells (5×10^5/mL) are treated with the indicated concentrations of AG490 for about 6 hours, after which Western Blotting is done as described for [A]. [C] depicts the suppression of phospho-STAT3 levels by Compound 1 (CIMO) in a time-dependent manner. HepG2 cells (5×10^5/mL) are treated with 10 μMol/L CIMO for the indicated times, after which Western blotting is done as described for [A]. [D] depicts that compound 1 (CIMO) has no effect on phospho-STAT3 (Ser-727) and STAT3 protein expression. HepG2 cells (5×10^5/mL) are treated with 10 μMol/L CIMO for the indicated times, after which Western Blotting is done as described for [A] and membrane is probed using antibodies against phospho-STAT3 (Ser-727) and STAT3. […] HepG2 cells (1×10^5/mL) are incubated with or without 10 μMol/L CIMO for about 6 hours and then analyzed for the intracellular distribution of STAT3 by immunocytochemistry. The same slides are counterstained for nuclei with Hoechst (50 ng/mL) for about 5 minutes and analyzed under an fluorescencemicroscope. […] HepG2 cells (5×10^5/mL) are treated with 10 μMol/L CIMO, after which whole-cell extracts are prepared, resolved in SDS-PAGE, electrotransferred onto nitrocellulose membrane, and probed with phospho-Src, phospho-JAK1 and phospho-JAK2 antibodies. The same blots are stripped and reprobed with Src, JAK1 and JAK2 antibodies to verify equal protein loading. [G] depicts the suppression of STAT3 DNA binding ability by Compound 1 (CIMO) in HepG2 cells. HepG2 cells are treated with 10 μMol/L CIMO for the indicated time, nuclear extracts are prepared, and 5 μg of the nuclear extract protein is used for ELISA-based DNA-binding assay.
CIMO is tested towards the inhibition of constitutive activation of STAT3 in HepG2 cells by Western Blotting via antibodies recognising phospho-STAT3 (Y705). For detection of phospho-proteins, CIMO treated whole-cell extracts are lysed in lysis buffer [20 mM Tris (pH 7.4), 250 mM NaCl, 2 mM Ethylenediaminetetraacetic acid (pH 8.0), 0.1% Triton-X-100, 0.01 mg/ml aprotinin, 0.005 mg/ml leupeptin, 0.4 mM phenylmethanesulfonylfluoride, and 4 mM NaVO4). Lysates are then spun at 14,000 rpm for about 10 minutes to remove insoluble material and resolved on SDS gel. After electrophoresis, the proteins are electrotransferred to a nitrocellulose membrane, blocked with 5% non-fat milk, and probed with various antibodies (1:1000) overnight at about 4° C. The blot is washed, exposed to HRP-conjugated secondary antibodies for about 1 hour, and finally examined by chemiluminescence (ECL; GE Healthcare, Little Chalfont, Buckinghamshire, UK).

Row | Compound | concentration of maximum inhibition of phospho-STAT3
1 | N#C/C(=C/c1ccc(O)c(O)c1)C(=O)NCc1ccccc1 [AG490, reference compound] | 200 µM

same assay, conditions: HepG2, Western blot, dose and time course

Row | Compound | levels of phospho-STAT3 (Y705)
2 | N#C/C(=C/c1ccc(O)c(O)c1)C(=O)NCc1ccccc1 [AG490, reference compound] | decreases the phosphorylation of STAT3 in a dose-dependent manner

same assay, conditions: HepG2, with 10 μMol/L CIMO, about 4 hours

Row | Compound | effect on CIMO-induced inhibition of STAT3 activation
3 | sodium pervanadate [reference compound] | prevents CIMO-induced inhibition of STAT3 activation

test system: HepG2 cells; experiment: MTT anti-proliferative assay, HepG2; format: cell-based; details: Homo sapiens; HepG2 cells after 72 hours, MTT
Protocol: The anti-proliferative activity of Formula I compounds are studied on HepG2 cells using MTT assay. Briefly, the cells (2.5×10^4/ml) are incubated in triplicate in a 96-well plate in the presence or absence of different concentrations of compounds in a final volume of 0.2 ml up to 72 hours at 37° C. Thereafter, 20 μl MTT solution (5 mg/ml in PBS) is added to each well. After 2 hours of incubation at 37° C., 0.1 ml lysis buffer (20% SDS, 50% dimethyl-formamide) is added; incubation is continued overnight at 37° C.; and the optical density (OD) at 570 nm is measured by Tecan plate reader.

Row | Compound | IC50
4 | CCCCc1nc(Cl)c(C2NCC(c3ccc(OC)cc3)C3(CCCCC3)O2)[nH]1 (stereo not drawn) [Compound 2, 2-(2-butyl-5-chloro-3H-imidazol-4-yl)-5-(4-methoxy-phenyl)-1-oxa-3-aza spiro(5,5) undecane] | 38.7 µM
5 | COc1ccc(C2CNC(c3c(-c4ccccc4)[nH]c4ccccc34)OC23CCCCC3)cc1 (stereo not drawn) [Compound 5, 2-(2-phenylindyl)-5-(4-methoxy-phenyl)-1-oxa-3-aza spiro(5,5) undecane] | 9.8 µM
6 | CCCCc1nc(Cl)c(C2NCC(c3ccc(OC)cc3)C3(CCCCC3)O2)n1Cc1ccc(-c2ccccc2C#N)cc1 (stereo not drawn) [Compound 3, 2-(2-butyl-5-chloro-3-(4-(2-cyanophenyl)1-benzyl)-imidazol-4-yl)-5-(4-methoxy-phenyl)-1-oxa-3-aza spiro(5,5) undecane] | 14.3 µM
7 | COc1ccc(C2CNC(c3ccc(Br)cc3)OC23CCCCC3)cc1 (stereo not drawn) [Compound 4, 2-(4-Bromophenyl)-5-(4-methoxy-phenyl)-1-oxa-3-aza spiro(5,5) undecane] | 37.1 µM

Next, values leading:

Row | IC50 | Compound
8 | 42.4 µM | COc1ccc(C2CNC(c3c(Cl)cccc3Cl)OC23CCCCC3)cc1 (stereo not drawn) [Compound 10, 2-(2,6-dichlorophenyl)-5-(4-methoxy-phenyl)-1-oxa-3-aza spiro(5,5) undecane]
9 | > 50 µM | COc1ccc(C2CNC(c3ccc4c(c3)CCO4)OC23CCCCC3)cc1 (stereo not drawn) [Compound 11, 2-(2,3-Dihydro-benzofuran-5-yl)-5-(4-methoxy-phenyl)-1-oxa-3-aza-spiro[5.5]undecane]
10 | > 50 µM | COc1ccc(C2CNC(c3c(C)[nH]c4ccccc34)OC23CCCCC3)cc1 (stereo not drawn) [Compound 9, 2-(2-methylindyl)-5-(4-methoxy-phenyl)-1-oxa-3-aza spiro(5,5) undecane]
11 | > 50 µM | COc1ccc(C2CN(Cc3ccc(-c4ccccc4C#N)cc3)C(c3c(Cl)cccc3Cl)OC23CCCCC3)cc1 (stereo not drawn) [Compound 12]
12 | 28.5 µM | COc1ccc(C2CNC(c3c[nH]c4ccccc34)OC23CCCCC3)cc1 (stereo not drawn) [Compound 6, 2-(indyl)-5-(4-methoxy-phenyl)-1-oxa-3-aza spiro(5,5) undecane]
13 | 15.8 µM | CCCCc1nc(Cl)c(C2NCC(c3ccc(OC)cc3)C3(CCCCC3)O2)n1Cc1ccc(Oc2ccccc2)cc1 (stereo not drawn) [Compound 7]
14 | > 50 µM | COc1ccc(C2CNC(c3ccc(N(C)C)cc3)OC23CCCCC3)cc1 (stereo not drawn) [Compound 13, 2-(4-dimethylaminophenyl)-5-(4-methoxy-phenyl)-1-oxa-3-aza spiro(5,5) undecane]
15 | 28.8 µM | COc1ccc(C2CNC(c3coc4ccccc4c3=O)OC23CCCCC3)cc1 (stereo not drawn) [Compound 8, 3-[5-(4-Methoxy-phenyl)-1-oxa-3-aza-spiro[5.5]undec-2-yl]-chromen-4-one]
